According to ChEMBL document CHEMBL1152560, “Substituted 2-arylbenzothiazoles as kinase inhibitors: hit-to-lead optimization” (Bioorg Med Chem, 2009):

Experiments:
[1] = molecular target: Serine/threonine-protein kinase pim-1 (Homo sapiens) (UniProt P11309); assay: Residual activity of PIM1 at 1 uM by microplate scintillation counting
[2] = molecular target: MAP/microtubule affinity-regulating kinase 3 (Homo sapiens) (UniProt P27448); assay: Residual activity of MARK3 at 1 uM by microplate scintillation counting
[3] = molecular target: Serine/threonine-protein kinase Nek7 (Homo sapiens) (UniProt Q8TDX7); assay: Residual activity of NEK7 at 1 uM by microplate scintillation counting
[4] = molecular target: Rho-associated protein kinase 2 (Homo sapiens) (UniProt O75116); assay: Residual activity of ROCK2 at 1 uM by microplate scintillation counting
[5] = molecular target: Casein kinase I isoform epsilon (Homo sapiens) (UniProt P49674); assay: Residual activity of CK1epsilon at 10 uM by microplate scintillation counting
[6] = molecular target: Mitogen-activated protein kinase 1 (Homo sapiens) (UniProt P28482); assay: Residual activity of ERK2 at 10 uM by microplate scintillation counting
[7] = molecular target: G protein-coupled receptor kinase 5 (Homo sapiens) (UniProt P34947); assay: Residual activity of GRK5 at 10 uM by microplate scintillation counting
[8] = molecular target: MAP/microtubule affinity-regulating kinase 3 (Homo sapiens) (UniProt P27448); assay: Residual activity of MARK3 at 10 uM by microplate scintillation counting
[9] = molecular target: Serine/threonine-protein kinase 26 (Homo sapiens) (UniProt Q9P289); assay: Residual activity of MST4 at 10 uM by microplate scintillation counting
[10] = molecular target: Cyclin-dependent kinase 2/cyclin A (Homo sapiens) (UniProt P24941+P20248+P78396); assay: Residual activity of CDK2/Cyclin A at 1 uM by microplate scintillation counting; type: protein-complex assay
[11] = molecular target: Tyrosine-protein kinase SYK (Homo sapiens) (UniProt P43405); assay: Residual activity of SYK at 10 uM by microplate scintillation counting
[12] = molecular target: T1, Serine/threonine-protein kinase Sgk1 (Homo sapiens) (UniProt O00141); assay: Residual activity of SGK1 at 0.1 uM by microplate scintillation counting
T1 sequence (whole entry): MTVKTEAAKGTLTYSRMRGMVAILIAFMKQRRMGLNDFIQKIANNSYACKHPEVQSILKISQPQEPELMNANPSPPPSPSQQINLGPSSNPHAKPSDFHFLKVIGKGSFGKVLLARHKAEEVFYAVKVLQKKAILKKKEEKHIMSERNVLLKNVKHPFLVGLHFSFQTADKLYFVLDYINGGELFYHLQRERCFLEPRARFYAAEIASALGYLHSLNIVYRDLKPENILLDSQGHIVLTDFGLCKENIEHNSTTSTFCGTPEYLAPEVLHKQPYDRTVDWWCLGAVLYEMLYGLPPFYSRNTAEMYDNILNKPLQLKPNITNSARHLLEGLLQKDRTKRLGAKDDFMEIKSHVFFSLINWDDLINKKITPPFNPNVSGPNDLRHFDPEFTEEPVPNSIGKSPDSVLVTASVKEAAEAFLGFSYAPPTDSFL

[13] = molecular target: T2, Serine/threonine-protein kinase Sgk3 (Homo sapiens) (UniProt Q96BR1); assay: Residual activity of SGK3 at 0.1 uM by microplate scintillation counting
T2 sequence (whole entry): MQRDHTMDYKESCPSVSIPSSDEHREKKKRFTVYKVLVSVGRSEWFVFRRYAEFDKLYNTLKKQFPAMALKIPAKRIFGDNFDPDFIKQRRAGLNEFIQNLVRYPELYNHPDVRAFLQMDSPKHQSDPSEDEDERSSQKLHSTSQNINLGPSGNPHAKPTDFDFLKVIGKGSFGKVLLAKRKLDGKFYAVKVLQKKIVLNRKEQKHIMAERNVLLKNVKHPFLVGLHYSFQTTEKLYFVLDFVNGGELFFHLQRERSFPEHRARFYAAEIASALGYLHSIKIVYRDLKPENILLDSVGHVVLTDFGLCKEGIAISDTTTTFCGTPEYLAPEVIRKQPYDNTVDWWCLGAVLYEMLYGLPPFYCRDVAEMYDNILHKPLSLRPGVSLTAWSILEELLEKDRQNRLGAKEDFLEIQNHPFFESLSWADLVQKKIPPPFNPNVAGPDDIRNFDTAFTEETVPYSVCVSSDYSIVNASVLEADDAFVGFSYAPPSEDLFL

[14] = molecular target: T3, Tyrosine-protein kinase receptor TYRO3 (Homo sapiens) (UniProt Q06418); assay: Residual activity of TYRO3 at 0.1 uM by microplate scintillation counting
T3 sequence (whole entry): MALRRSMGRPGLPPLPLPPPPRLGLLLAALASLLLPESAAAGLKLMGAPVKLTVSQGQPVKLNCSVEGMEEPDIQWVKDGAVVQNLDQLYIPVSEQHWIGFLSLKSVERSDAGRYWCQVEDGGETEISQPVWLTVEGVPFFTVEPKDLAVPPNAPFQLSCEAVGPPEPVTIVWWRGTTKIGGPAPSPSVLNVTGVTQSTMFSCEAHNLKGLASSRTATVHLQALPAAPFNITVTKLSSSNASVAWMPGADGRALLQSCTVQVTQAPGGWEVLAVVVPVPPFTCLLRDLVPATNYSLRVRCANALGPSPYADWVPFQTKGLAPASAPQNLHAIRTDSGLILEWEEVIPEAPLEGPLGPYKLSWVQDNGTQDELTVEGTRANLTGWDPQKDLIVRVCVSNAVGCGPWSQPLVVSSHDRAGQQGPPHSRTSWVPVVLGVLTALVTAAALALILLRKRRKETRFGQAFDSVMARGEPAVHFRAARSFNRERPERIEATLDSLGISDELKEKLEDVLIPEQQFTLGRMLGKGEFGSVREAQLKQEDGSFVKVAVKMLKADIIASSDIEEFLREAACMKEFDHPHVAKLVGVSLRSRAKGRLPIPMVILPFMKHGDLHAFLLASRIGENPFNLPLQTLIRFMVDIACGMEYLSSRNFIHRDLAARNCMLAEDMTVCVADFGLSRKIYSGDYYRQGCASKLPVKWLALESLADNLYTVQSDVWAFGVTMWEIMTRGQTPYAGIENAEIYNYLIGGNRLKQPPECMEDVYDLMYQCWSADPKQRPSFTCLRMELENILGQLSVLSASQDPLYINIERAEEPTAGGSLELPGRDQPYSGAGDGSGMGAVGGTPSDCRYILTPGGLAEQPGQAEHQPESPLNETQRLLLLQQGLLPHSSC

Chain of Serine/threonine-protein kinase Nek7 (Homo sapiens) (Q8TDX7 whole entry, looked up): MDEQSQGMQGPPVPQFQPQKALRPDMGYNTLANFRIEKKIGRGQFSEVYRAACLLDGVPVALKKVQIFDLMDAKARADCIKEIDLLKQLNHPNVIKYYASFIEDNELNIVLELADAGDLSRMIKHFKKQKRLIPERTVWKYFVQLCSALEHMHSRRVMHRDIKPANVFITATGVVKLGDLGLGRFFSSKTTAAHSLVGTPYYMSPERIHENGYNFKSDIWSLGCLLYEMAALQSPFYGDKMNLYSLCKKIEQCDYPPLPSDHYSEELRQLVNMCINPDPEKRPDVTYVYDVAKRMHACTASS
Chain of Mitogen-activated protein kinase 1 (Homo sapiens) (P28482 whole entry): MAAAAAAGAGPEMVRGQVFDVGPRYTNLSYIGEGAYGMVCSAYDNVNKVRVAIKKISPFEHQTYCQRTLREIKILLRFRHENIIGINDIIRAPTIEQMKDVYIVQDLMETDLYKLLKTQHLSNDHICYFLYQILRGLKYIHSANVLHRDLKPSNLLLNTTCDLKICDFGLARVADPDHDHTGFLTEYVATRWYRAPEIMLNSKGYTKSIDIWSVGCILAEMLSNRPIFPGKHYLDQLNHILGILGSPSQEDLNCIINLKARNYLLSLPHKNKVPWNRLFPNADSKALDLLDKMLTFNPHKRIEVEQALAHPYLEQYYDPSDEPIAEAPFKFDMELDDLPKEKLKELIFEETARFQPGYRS
Chain of Serine/threonine-protein kinase 26 (Homo sapiens) (Q9P289 2-416 limits assumed): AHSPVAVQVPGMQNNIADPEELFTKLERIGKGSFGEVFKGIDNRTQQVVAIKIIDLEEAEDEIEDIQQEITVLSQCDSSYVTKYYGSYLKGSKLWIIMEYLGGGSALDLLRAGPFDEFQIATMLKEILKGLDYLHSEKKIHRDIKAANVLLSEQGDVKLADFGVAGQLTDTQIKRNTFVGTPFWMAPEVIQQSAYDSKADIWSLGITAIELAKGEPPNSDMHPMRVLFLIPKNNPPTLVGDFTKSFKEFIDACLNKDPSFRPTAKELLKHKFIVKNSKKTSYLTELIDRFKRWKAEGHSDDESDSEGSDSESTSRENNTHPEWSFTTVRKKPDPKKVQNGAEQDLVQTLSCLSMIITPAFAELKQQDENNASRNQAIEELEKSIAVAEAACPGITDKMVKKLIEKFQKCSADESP
Chain of G protein-coupled receptor kinase 5 (Homo sapiens) (P34947 whole entry, looked up): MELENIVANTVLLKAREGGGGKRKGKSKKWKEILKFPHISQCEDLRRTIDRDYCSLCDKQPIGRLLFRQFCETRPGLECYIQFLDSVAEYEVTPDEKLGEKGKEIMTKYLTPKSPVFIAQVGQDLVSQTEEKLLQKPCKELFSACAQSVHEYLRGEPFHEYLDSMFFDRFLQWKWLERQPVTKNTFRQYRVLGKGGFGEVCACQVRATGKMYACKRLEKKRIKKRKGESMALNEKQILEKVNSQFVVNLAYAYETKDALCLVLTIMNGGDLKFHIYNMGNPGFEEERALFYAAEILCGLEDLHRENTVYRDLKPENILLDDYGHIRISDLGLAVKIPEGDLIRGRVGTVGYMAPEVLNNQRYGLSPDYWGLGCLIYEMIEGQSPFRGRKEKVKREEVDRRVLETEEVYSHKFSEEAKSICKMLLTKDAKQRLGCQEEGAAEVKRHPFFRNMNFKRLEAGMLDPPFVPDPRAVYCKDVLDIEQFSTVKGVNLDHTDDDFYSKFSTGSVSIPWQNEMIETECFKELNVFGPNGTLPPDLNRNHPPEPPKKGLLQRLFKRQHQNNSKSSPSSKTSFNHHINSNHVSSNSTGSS
Chain of Casein kinase I isoform epsilon (Homo sapiens) (P49674 whole entry, looked up, canonical isoform): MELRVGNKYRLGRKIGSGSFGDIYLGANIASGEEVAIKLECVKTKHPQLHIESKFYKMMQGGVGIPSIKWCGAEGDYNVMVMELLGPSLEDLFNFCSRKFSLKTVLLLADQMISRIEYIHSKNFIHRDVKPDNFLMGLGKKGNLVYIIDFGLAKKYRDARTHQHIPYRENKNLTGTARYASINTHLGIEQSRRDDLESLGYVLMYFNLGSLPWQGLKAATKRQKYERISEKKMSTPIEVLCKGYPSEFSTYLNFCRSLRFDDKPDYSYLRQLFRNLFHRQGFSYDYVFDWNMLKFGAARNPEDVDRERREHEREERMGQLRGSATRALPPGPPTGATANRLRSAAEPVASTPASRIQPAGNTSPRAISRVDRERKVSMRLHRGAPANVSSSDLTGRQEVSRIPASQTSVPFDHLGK
Chain of MAP/microtubule affinity-regulating kinase 3 (Homo sapiens) (P27448 whole entry, looked up): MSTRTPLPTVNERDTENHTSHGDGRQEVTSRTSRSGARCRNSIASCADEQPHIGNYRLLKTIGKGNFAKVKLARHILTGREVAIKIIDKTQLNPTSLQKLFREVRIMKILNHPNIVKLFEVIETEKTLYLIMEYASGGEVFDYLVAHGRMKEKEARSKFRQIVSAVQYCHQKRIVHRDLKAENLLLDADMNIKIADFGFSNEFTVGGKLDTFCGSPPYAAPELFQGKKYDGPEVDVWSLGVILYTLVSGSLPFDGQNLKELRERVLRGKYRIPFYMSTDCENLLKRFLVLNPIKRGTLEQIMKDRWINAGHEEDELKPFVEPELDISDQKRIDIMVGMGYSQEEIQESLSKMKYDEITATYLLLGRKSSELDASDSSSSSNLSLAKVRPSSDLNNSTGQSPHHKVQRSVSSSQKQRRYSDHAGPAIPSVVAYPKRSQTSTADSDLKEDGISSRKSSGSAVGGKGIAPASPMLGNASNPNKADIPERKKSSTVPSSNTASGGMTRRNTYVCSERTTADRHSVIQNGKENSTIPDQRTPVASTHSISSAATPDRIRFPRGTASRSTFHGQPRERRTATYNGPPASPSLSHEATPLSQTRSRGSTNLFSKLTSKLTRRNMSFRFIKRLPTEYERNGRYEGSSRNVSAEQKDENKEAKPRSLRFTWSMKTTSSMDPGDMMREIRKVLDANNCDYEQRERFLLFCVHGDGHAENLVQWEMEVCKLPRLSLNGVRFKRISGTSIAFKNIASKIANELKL
Chain of Serine/threonine-protein kinase pim-1 (Homo sapiens) (P11309 whole entry, looked up): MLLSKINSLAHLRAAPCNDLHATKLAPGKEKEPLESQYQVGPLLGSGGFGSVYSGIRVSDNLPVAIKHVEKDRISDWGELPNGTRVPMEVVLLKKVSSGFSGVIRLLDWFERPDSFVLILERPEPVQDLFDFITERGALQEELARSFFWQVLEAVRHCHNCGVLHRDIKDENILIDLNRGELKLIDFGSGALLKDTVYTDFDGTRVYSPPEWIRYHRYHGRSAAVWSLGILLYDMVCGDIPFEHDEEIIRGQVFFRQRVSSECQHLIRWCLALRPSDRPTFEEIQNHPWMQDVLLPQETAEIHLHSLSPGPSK
Chain of Rho-associated protein kinase 2 (Homo sapiens) (O75116 whole entry, looked up, canonical isoform): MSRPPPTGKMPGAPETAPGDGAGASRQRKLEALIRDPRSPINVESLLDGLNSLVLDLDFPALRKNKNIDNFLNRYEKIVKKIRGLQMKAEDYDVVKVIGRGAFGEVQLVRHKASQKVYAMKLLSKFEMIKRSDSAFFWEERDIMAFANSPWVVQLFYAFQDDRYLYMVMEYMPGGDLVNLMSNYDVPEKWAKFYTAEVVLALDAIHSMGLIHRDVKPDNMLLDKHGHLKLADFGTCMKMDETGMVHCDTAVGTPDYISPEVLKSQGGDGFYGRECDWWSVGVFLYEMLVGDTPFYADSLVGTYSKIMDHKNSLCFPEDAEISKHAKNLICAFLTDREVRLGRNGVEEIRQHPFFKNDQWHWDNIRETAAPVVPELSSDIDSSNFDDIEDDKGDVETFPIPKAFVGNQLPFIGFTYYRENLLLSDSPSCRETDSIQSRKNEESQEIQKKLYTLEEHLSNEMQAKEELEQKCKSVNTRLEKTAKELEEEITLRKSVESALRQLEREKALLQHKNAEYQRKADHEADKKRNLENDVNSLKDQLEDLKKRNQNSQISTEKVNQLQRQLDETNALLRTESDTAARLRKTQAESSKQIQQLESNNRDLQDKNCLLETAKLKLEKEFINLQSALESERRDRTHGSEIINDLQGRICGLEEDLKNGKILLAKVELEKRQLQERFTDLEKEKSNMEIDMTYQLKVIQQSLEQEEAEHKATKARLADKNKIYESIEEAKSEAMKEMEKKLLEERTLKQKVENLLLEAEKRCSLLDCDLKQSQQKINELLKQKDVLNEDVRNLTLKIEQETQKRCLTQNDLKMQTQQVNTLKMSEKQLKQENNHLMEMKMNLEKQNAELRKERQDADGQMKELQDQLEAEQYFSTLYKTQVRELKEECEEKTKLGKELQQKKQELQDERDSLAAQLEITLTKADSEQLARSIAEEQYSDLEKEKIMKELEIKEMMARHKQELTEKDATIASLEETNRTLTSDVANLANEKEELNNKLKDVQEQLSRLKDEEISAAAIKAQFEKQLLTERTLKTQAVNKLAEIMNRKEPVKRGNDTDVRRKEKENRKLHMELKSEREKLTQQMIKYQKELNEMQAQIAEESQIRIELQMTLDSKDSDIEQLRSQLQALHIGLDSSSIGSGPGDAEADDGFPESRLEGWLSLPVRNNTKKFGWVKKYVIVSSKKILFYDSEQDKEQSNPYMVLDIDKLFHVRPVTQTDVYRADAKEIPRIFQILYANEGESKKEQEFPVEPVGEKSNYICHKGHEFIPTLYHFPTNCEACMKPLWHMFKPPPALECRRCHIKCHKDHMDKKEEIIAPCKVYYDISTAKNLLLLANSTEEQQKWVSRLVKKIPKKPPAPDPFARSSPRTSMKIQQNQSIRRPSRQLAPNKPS

Row | Compound | residual activity [1] | residual activity [2] | residual activity [3] | residual activity [4] | residual activity [5] | residual activity [6] | residual activity [7] | residual activity [8] | residual activity [9] | residual activity [10] | residual activity [11] | residual activity [12] | residual activity [13] | residual activity [14]
1 | COc1cc2c(Oc3ccc(-c4nc5ccccc5s4)cc3F)ncnc2cc1OCCCN1CCN(C)CC1 | 102% | 91% | 103% | 93% | 97% | 163% | 84% | 104% | 76% | 97% | 63% | 98% | 104% | 115%
2 | COc1cc2c(Oc3ccc(-c4nc5ccccc5s4)cc3)ncnc2cc1OCCCN1CCCC1 | 104% | 91% | 104% | 93% | 147% | 144% | 81% | 108% | 85% | 96% | 162% | 96% | 114% | 106%
3 | COc1cc2c(Oc3ccc(-c4nc5ccccc5s4)cc3)ncnc2cc1OCCCN1CCN(C)CC1 | 109% | 93% | 95% | 101% | 156% | 161% | 76% | 107% | 88% | 96% | 146% | 85% | 91% | 120%
